Measurements as given in patent US6908909B2, “Liquid oral compositions comprising a calcium compound and an acidulant” (SmithKline Beecham plc, priority 1996, dated 2005).

Assay: In-vitro study of phosphorus liberated from teeth exposed to citric acid solutions
Conditions: for Mean amount Phosphorus liberated (μg) ± 1 SD: 0.3% citric acid
Procedure: To investigate the importance of calcium supplementation on exposure of enamel to citric acid solutions, five experiments were undertaken, each using eight teeth. The teeth were first subjected to prophylaxis, washed with saline and then covered in an acid resistant wax with the exception of a 5 mm diameter experimental window.
In each experiment the teeth were subjected to six consecutive 5 min exposures with 0.3% citric acid solutions at a flow rate of 0.1 ml/min. The citric acid solutions were supplemented with either 0.0, 0.5, 1.5, 2.5, 5.0, 7.5 10 or 15 mM calcium in the form of calcium hydroxide and the pH was adjusted to 3.5 or 3.8 using 1.0 M sodium hydroxide. Samples of residual citric acid were collected after every 5 min exposure of the teeth and these were frozen at −4° C., prior to phosphorus analysis by the method of Chen et al (1956) Analytical Chemistry, Vol.28, p1956-8.

[Ca+2].[OH-].[OH-] [calcium, calcium hydroxide]
Mean amount Phosphorus liberated (μg) ± 1 SD (calcium 0.5 mM (mol ratio calcium:acid 0.03), pH 3.5): 1.25 ± 0.14 µg
Mean amount Phosphorus liberated (μg) ± 1 SD (calcium 0.5 mM (mol ratio calcium:acid 0.03), pH 3.8): 1.02 ± 0.09 µg
Mean amount Phosphorus liberated (μg) ± 1 SD (calcium 1.5 mM (mol ratio calcium:acid 0.10), pH 3.5): 1.07 ± 0.15 µg
Mean amount Phosphorus liberated (μg) ± 1 SD (calcium 1.5 mM (mol ratio calcium:acid 0.10), pH 3.8): 0.83 ± 0.12 µg
Mean amount Phosphorus liberated (μg) ± 1 SD (calcium 2.5 mM (mol ratio calcium:acid 0.17), pH 3.5): 1.22 ± 0.14 µg
Mean amount Phosphorus liberated (μg) ± 1 SD (calcium 2.5 mM (mol ratio calcium:acid 0.17), pH 3.8): 0.63 ± 0.13 µg
Mean amount Phosphorus liberated (μg) ± 1 SD (calcium 5 mM (mol ratio calcium:acid 0.35), pH 3.5): 0.79 ± 0.06 µg
Mean amount Phosphorus liberated (μg) ± 1 SD (calcium 5 mM (mol ratio calcium:acid 0.35), pH 3.8): 0.46 ± 0.13 µg
Mean amount Phosphorus liberated (μg) ± 1 SD (calcium 7.5 mM (mol ratio calcium:acid 0.52), pH 3.5): 0.72 ± 0.1 µg
Mean amount Phosphorus liberated (μg) ± 1 SD (calcium 7.5 mM (mol ratio calcium:acid 0.52), pH 3.8): 0.32 ± 0.10 µg
Mean amount Phosphorus liberated (μg) ± 1 SD (calcium 10 mM (mol ratio calcium:acid 0.70), pH 3.5): 0.46 ± 0.13 µg
Mean amount Phosphorus liberated (μg) ± 1 SD (calcium 10 mM (mol ratio calcium:acid 0.70), pH 3.8): 0.24 ± 0.11 µg
Mean amount Phosphorus liberated (μg) ± 1 SD (calcium 15 mM (mol ratio calcium:acid 1.05), pH 3.5): 0.3 ± 0.10 µg
Mean amount Phosphorus liberated (μg) ± 1 SD (calcium 15 mM (mol ratio calcium:acid 1.05), pH 3.8): 0.14 ± 0.07 µg
effect on erosive potential of a 0.3% citric acid solution (in words) (addition of calcium to 0.3% citric acid solution, effect greatest up to calcium to acid molar ratio of about 0.5): reduces its erosive potential

O=C(O)CC(O)(CC(=O)O)C(=O)O [citric acid, reference compound]
Mean amount Phosphorus liberated (μg) ± 1 SD (calcium 0 mM (mol ratio calcium:acid 0.00), pH 3.5): 1.41 ± 0.11 µg
Mean amount Phosphorus liberated (μg) ± 1 SD (calcium 0 mM (mol ratio calcium:acid 0.00), pH 3.8): 1.26 ± 0.17 µg
